Measured values as given in paper PMC10714751 (Microbiology Spectrum, 2023).
Values after ≈ are worked out from the molar mass of the structure shown. Starred links: 1 amine or outer side, 2 acyl side, 3 side chain; linkers in the order of their positions; H or OH if unused. Positions of bridges follow the written chain, without caps; N, C: chain ends. Non-standard residues stand in square brackets, D forms with d. Residues, ends and D or L forms follow the SMILES beside them. *: point of attachment. dAsp(3R-OH) = N[C@@H](C(=O)O)[C@@H](O)C(=O)O; Palmitoleoyl = CCCCCC/C=C\CCCCCCCC(=O)*; X1 = NC[C@H](O)[C@@H](N[*:1])C(=O)[*:2]; X2 = CCC(C)(O)[C@H](N[*:1])C(=O)[*:2]; d(aIle) = CC[C@H](C)[C@@H](N)C(=O)O; d(aThr) = C[C@@H](O)[C@@H](N)C(=O)O; Myristoyl = CCCCCCCCCCCCCC(=O)*; dOrn = NCCC[C@@H](N)C(=O)O; X3 = CC[C@H](C)CCCCC(=O)*; hSer = N[C@@H](CCO)C(=O)O; Dab = NCC[C@H](N)C(=O)O

How the values were obtained:
[1] = test system: evolved turnercyclamycin B-resistant E. coli DH5α; assay: Broth dilution assay against evolved resistant strains
E. coli DH5α [2] = assay: Evolution of turnercyclamycin-resistant E. coli by sublethal dose passaging; settings: for time of exposure to reach 32× the original MIC90: daily serial passaging, up to 63 d
[3] = test system: A. baumannii AB5075UW ΔlpxC::ISAbaI; assay: Broth dilution assay against LpxC-deficient mutant; settings: MIC90 ΔlpxC vs WT 5075UW, Fig. 2A
Pharmacokinetics in mice = type: in vivo; settings: 5mg/kg IV, plasma, LC-MS/MS
Method: Eurofins used mice from BioLASCO Taiwan.
Protocols were performed at Eurofins (Taiwan). Turnercyclamycin A in plasma was measured by liquid chromatography-tandem mass spectrometry, and graphs illustrating the mean plasma concentrations (mean ± SD) over time were generated. PK parameters were obtained using non-compartmental analysis of the plasma data with WinNonlin.

[4] = test system: A. baumannii Tn26-mlaA insertion strains AB8497, AB8498, AB8499; assay: Broth dilution assay against mlaA transposon mutants; settings: for change of MIC90 against AB8497 versus wild type: mlaA insertion at position 132, twofold dilutions from 20 µg/mL; for change of MIC90 against AB8497 versus wild type / change of MIC90 against AB8499 versus wild type: 10 µg/mL tetracycline; for change of MIC90 against AB8499 versus wild type: mlaA insertion at position 507; for sensitivity of the mlaA mutants in comparison to the wild type: AB8497, AB8498, AB8499
E. coli DH5α [5] = assay: Antimicrobial broth dilution assay
pGDP2-MCR-1 in C600 = assay: Antibiotic susceptibility testing of MCR-1-expressing E. coli; settings: broth dilution, MTT
Yersinia pestis = settings: cited from earlier work
pBR322 in C600 = assay: Antimicrobial broth dilution assay, empty vector control; settings: MTT
E. coli ΔompC, ΔompF = assay: Broth dilution assay against OmpC and OmpF knockouts
E. coli C600 = assay: Antimicrobial broth dilution assay; settings: MTT
[6] = test system: Keio E. coli mlaA knockouts (ΔmlaA); assay: Broth dilution assay against Keio mlaA knockouts; settings: triplicate, three biological replicates
pGDP2-MCR-1 in DH5α = assay: Antibiotic susceptibility testing of MCR-1-expressing E. coli
A. baylyi ADP1 ΔpldA = assay: Broth dilution assay against pldA knockout; settings: Fig. S4
pBR322 in DH5α = assay: Antimicrobial broth dilution assay, empty vector control; settings: MTT
[7] = female, BALB/c, mouse, mice, non-compartmental analysis

## CCCCCCCCCCCCCC(=O)N[C@H](CCCN)C(=O)N[C@@H](CO)C(=O)N[C@H](C(=O)N[C@@H](C(=O)N[C@@H](C(=O)N[C@H]1C(=O)NCC(=O)N[C@@H](C(C)(O)CC)C(=O)N[C@H]([C@@H](C)CC)C(=O)N[C@@H](CCO)C(=O)N[C@@H](C)C(=O)N[C@H]([C@@H](C)CC)C(=O)N[C@@H](CCC(=O)O)C(=O)O[C@@H]1C)[C@@H](O)CN)[C@@H](O)C(=O)O)C(C)C (stereo partly drawn) [Turnercyclamycin A] (Myristoyl-[dOrn]SV[dAsp(3R-OH)][X1][d(aThr)]G[X2][d(aIle)][hSer]A[d(aIle)]E; ester 6-C)
[1]; Table 2, Fig. S3
  sensitivity of turnercyclamycin B-resistant strains compared with wild type: more sensitive
E. coli DH5α [2]; daily passaging at sub-MIC for 63 d
  resistance reached by serial passaging (× original MIC90): 8 ×
E. coli DH5α [2]
  time of exposure to reach 32× the original MIC90: > 63 days
[3]
  loss in susceptibility of A. baumannii ΔlpxC in comparison to the wild-type strain: greater than fourfold
Pharmacokinetics in mice; mice, non-compartmental analysis
  AUC/D: 58080 kg·ng·h/mL/mg
Pharmacokinetics in mice; BALB/c, mouse, ALB/c female mice, non-compartmental analysis (WinNonlin)
  half-life: 4.35 h
Pharmacokinetics in mice; [7]
  AUC(0-inf): 290 µg·h/mL
  AUC(0-t): 285 µg·h/mL
  C0: 33700 ng/mL
Pharmacokinetics in mice; female, BALB/c, mouse, mice, non-compartmental analysis, read-out: CL (clearance rate) (converted)
  clearance: 0.29 mL/min/kg
Pharmacokinetics in mice; female, BALB/c, mouse, mice, non-compartmental analysis, read-out: MRT (mean residence time)
  MRT: 5.83 h
Pharmacokinetics in mice; female, BALB/c, mouse, mice, non-compartmental analysis, read-out: VSS (Vd at steady state)
  Vd: 0.1 L/kg
[4]
  change of MIC90 against AB8497 versus wild type: retained wild-type potency
  change of MIC90 against AB8499 versus wild type: retained wild-type potency

## CC[C@H](C)CCCCC(=O)N[C@@H](CCN)C(=O)N[C@H](C(=O)N[C@@H](CCN)C(=O)N[C@H]1CCNC(=O)[C@H]([C@@H](C)O)NC(=O)[C@H](CCN)NC(=O)[C@H](CCN)NC(=O)[C@H](CC(C)C)NC(=O)[C@@H](CC(C)C)NC(=O)[C@H](CCN)NC1=O)[C@@H](C)O [Colistin, colistin (polymyxin E)] (X3-[Dab]T[Dab][Dab][Dab][dL]L[Dab][Dab]T; lactam 4-C)
[1]; Strain 1
  MIC90: 0.5 µg/mL (≈ 0.428 µM)
[1]; Strain 2 (found contaminated with Staphylococcus)
  MIC90: 0.5 µg/mL (≈ 0.428 µM)
[1]; Strain 3
  MIC90: 0.5 µg/mL (≈ 0.428 µM)
[1]; Strain 4
  MIC90: 0.5 µg/mL (≈ 0.428 µM)
[1]; Strain 5
  MIC90: 0.5 µg/mL (≈ 0.428 µM)
E. coli DH5α [5]; DH5α WT (Table 2)
  MIC90: 0.5 µg/mL (≈ 0.428 µM)
E. coli DH5α [5]; text summary: both E. coli parent and vector-control strains (DH5α and C600)
  MIC90: 0.5 µg/mL (≈ 0.428 µM)
pGDP2-MCR-1 in C600
  MIC90: 8 µg/mL (≈ 6.84 µM)
Yersinia pestis
  susceptibility of Yersinia pestis after LPS modification with 4-amino-4-deoxy-L-arabinose: blocked
pBR322 in C600
  MIC90: 1 µg/mL (≈ 0.855 µM)
E. coli ΔompC, ΔompF
  resistance of OmpC and OmpF knockouts: not resistant
E. coli C600
  MIC90: 0.5 µg/mL (≈ 0.428 µM)
[6]
  MIC90: 0.25 µg/mL (≈ 0.214 µM)
[3]
  loss in susceptibility of A. baumannii ΔlpxC in comparison to the wild-type strain: greater than fourfold
pGDP2-MCR-1 in DH5α; MIC90 ratio mcr-1 strains / parent strains
  loss of potency against strains expressing mcr-1 versus parent: 16 fold
pGDP2-MCR-1 in DH5α; text summary: strains expressing mcr-1 (DH5α and C600)
  MIC90: 8 µg/mL (≈ 6.84 µM)
A. baylyi ADP1 ΔpldA
  resistance of ΔpldA strain compared with WT A. baylyi ADP1: did not significantly demonstrate resistance
pBR322 in DH5α
  MIC90: 0.5 µg/mL (≈ 0.428 µM)
[4]
  sensitivity of the mlaA mutants in comparison to the wild type: potentially slightly more sensitive

## CCCCCC/C=C\CCCCCCCC(=O)N[C@H](CCCN)C(=O)N[C@@H](CO)C(=O)N[C@H](C(=O)N[C@@H](C(=O)N[C@@H](C(=O)N[C@H]1C(=O)NCC(=O)N[C@@H](C(C)(O)CC)C(=O)N[C@H]([C@@H](C)CC)C(=O)N[C@@H](CCO)C(=O)N[C@@H](C)C(=O)N[C@H]([C@@H](C)CC)C(=O)N[C@@H](CCC(=O)O)C(=O)O[C@@H]1C)[C@@H](O)CN)[C@@H](O)C(=O)O)C(C)C (stereo partly drawn) [Turnercyclamycin B] (Palmitoleoyl-[dOrn]SV[dAsp(3R-OH)][X1][d(aThr)]G[X2][d(aIle)][hSer]A[d(aIle)]E; ester 6-C)
E. coli DH5α [2]
  time of exposure to reach 32× the original MIC90: 8 to 14 days
[4]
  change of MIC90 against AB8497 versus wild type: doubled
  change of MIC90 against AB8499 versus wild type: fourfold

## CO[C@H]1/C=C/O[C@@]2(C)Oc3c(C)c(O)c4c(O)c(cc(O)c4c3C2=O)NC(=O)/C(C)=C\C=C\[C@H](C)[C@H](O)[C@@H](C)[C@@H](O)[C@@H](C)[C@H](OC(C)=O)[C@@H]1C [Rifamycin, rifamycin]
[4]
  sensitivity of the mlaA mutants in comparison to the wild type: increase in sensitivity
